These results are taken from paper PMC11813896, “Bis(7)-harmine derivatives as potential multi-target anti-Alzheimer agents” (Frontiers in Chemistry, 2025).

Each structure is given as a SMILES string. Read-outs that look alike come from different tables or passages of the source.

The test system of one data set is BuChE. The conditions noted are these: cited from earlier work.
Another data set deals with Aβ1-42. The note with it: cited from earlier work.
The subject of a further data set is BACE1. The arrangement: method as in Bolognesi et al., 2010. The note with it: ref Bolognesi et al., 2010; read-out: IC50 for inhibiting BACE1 (bis-tacrine); cited from earlier work.
The test system of another data set is AChE. The note with it: cited from earlier work.
In a further data set the test system is Tau. Further details: method as in Boländer et al., 2012. The note with it: ref Boländer et al., 2012; read-out: IC50 for inhibiting tau protein phosphorylation (bis-(arylvinyl)pyrazines); cited from earlier work.
A further data set deals with Aβ. The arrangement: method as in Boländer et al., 2012. The conditions noted are these: ref Boländer et al., 2012; read-out: IC50 for inhibiting Aβ aggregation (bis-(arylvinyl)pyrazines); cited from earlier work.
The next data set has as its system MAO-B. Further details: method as in Du et al., 2023; Haider et al., 2018. The note with it: ref Du et al., 2023; Haider et al., 2018; read-out: MAO-B (compound 6 of Figure 1); cited from earlier work.
In another data set the test system is MAO-A. The conditions noted are these: 2023, cited from earlier work.
Data set [1] deals with SHSY5Y cells. Kind of data set: In vitro cytotoxicity, MTT assay. The format is cell-based. The conditions noted are these: 48 h. How it is done: Following this incubation period, the MTT solution was substituted with […] of DMSO and further incubated at room temperature for 10 minutes to dissolve formazan crystals formed by viable cells. Sorensen Buffer ([…]) was added subsequently followed by measuring absorbance at a wavelength of 570 nm to determine cell viability based on calculated values obtained from control samples without compound treatment. This experimental procedure was repeated independently three times.

A further data set addresses hAChE (Homo sapiens, UniProt P22303). The data set is described as follows: biochemical. The procedure:
50 μL of hAChE (0.02 unit/mL) or hBChE (0.02 unit/mL) were incubated with 10 μL of the compound in 96-well plates at 37°C for 6 min. Subsequently, 30 μL of a substrate solution containing acetylthiocholine iodide (ATCI) or butyrylthiocholine iodide (BTCI) at a concentration of 0.01 M was added, and the mixture was further incubated at 37°C for an additional duration of 12 min.

The target in another data set is T1, recombinant hMAO-A (Homo sapiens, UniProt P21397).
T1 construct: purchased Sigma-Aldrich
T1 sequence (P21397 1-527): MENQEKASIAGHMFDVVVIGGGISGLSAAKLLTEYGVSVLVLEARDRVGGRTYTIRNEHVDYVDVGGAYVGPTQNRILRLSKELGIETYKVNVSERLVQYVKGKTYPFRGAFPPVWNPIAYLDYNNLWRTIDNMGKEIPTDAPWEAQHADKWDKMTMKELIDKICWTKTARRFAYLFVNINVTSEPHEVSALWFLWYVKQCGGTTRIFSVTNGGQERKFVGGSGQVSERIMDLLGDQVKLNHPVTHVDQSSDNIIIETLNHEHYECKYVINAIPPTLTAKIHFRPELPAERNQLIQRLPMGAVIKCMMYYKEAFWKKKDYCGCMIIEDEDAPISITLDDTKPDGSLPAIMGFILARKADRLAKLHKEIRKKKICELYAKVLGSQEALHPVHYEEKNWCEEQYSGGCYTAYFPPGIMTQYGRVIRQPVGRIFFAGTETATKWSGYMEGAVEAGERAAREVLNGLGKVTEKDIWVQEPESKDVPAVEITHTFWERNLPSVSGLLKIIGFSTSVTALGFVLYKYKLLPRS
Kind of data set: biochemical. The note with it: mean ± SD; read-out: IC50 (nM) for monoamine oxidases hMAO-A. The procedure:
(§1) Briefly, the compounds under investigation and the reference inhibitor were preincubated with kynuramine at 37°C for 10 min in 96-well microplates. […] The enzymatic reactions were terminated by adding 400 μL of 2 N NaOH and 1,000 μL of water, followed by centrifugation at 16,000 g for 10 min. Subsequently, the concentrations of MAOs that produced 4-hydroxyquinoline were determined by measuring the fluorescence of the supernatant using a Varioskan Flash Multimode Reader ([…]) with excitation and emission wavelengths set at 310 nm and 400 nm, respectively. The IC50 values were calculated from dose-response curves and expressed as the mean ± standard deviation. These values were determined based on at least three independent experiments, each performed in triplicate.

Another data set addresses T2, recombinant hMAO-B (Homo sapiens, UniProt P27338).
T2 construct: purchased Sigma-Aldrich
T2 sequence (P27338 1-520): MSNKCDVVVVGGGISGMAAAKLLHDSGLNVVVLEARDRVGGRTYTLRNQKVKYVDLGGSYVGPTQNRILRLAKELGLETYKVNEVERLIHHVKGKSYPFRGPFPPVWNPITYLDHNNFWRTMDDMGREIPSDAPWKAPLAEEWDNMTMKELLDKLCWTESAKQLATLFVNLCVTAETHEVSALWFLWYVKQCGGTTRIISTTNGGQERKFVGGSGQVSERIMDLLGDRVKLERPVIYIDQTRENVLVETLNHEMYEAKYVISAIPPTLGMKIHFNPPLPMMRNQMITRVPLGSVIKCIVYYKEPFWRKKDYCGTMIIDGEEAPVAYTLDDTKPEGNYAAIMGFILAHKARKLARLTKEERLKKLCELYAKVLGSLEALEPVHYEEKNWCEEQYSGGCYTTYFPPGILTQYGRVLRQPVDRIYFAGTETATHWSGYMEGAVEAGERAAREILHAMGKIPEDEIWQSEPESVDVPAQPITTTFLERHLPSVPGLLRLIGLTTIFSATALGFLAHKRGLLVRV
Kind of data set: biochemical. The procedure:
as §1

Data set [2] concerns SHSY5Y cells. The data set is described as follows: Protection of SHSY5Y cells against damage induced by Aβ 1−42, MTT. The format is cell-based, human. The conditions noted are these: 1 μM, co-exposed with Aβ 1-42 for 48 h. How it is done: The protective effect of the test compounds against Aβ 1-42-induced damage was assessed by monitoring MTT reduction in cells co-exposed to the compound and Aβ 1-42 for 48 h (Figure 3) ([…]). The 6d, 8c, and 8d were tested at concentrations of 1, 5, and 10 μM. […] Therefore, it is imperative to elucidate the underlying mechanisms responsible for these protective effects.
The SHSY5Y cells were seeded in 96-well plates at a density of 1 × 10^4 cells per well and incubated at 37°C for 24 h. Each compound was dissolved in DMSO, followed by direct dilution in the cell culture medium to achieve final concentrations of 1 μM, 5 μM, and 10 μM. Aβ 1−42 was added to each well at a concentration of 5 μM. The cells were then further incubated at 37°C for an additional period of 48 h. Cell viability was subsequently assessed using the MTT assay protocol ([…]).

For the next data set, the target named is Aβ 1−42 (Homo sapiens, UniProt P05067). The data set is described as follows: Thioflavin T fluorescence assay, Aβ 1−42 self-aggregation. The format is biochemical. The conditions noted are these: Aβ 1-42 20 μM, 37°C, 24 h. How it is done:
The thioflavin T (Th-T) fluorescence assay was used to assess the inhibition of Aβ 1−42 self-aggregation. […] Subsequently, the reaction was terminated to a final volume of 200 μL using Th-T (10 μM) solution.

The target of another data set is hBuChE (Homo sapiens, UniProt P06276). Kind of data set: Ellman's assay, hBuChE inhibition. The format is biochemical. The note with it: read-out: inhibition of hBuChE in primary screening. The procedure:
The Ellman’s assay was utilized to assess the inhibitory potential of novel bis(7)-harmine derivatives against hAChE and hBuChE. 50 μL of hAChE (0.02 unit/mL) or hBChE (0.02 unit/mL) were incubated with 10 μL of the compound in 96-well plates at 37°C for 6 min. Subsequently, 30 μL of a substrate solution containing acetylthiocholine iodide (ATCI) or butyrylthiocholine iodide (BTCI) at a concentration of 0.01 M was added, and the mixture was further incubated at 37°C for an additional duration of 12 min. Finally, the activity was measured by adding 150 μL of a solution containing 5,5′−dithiobis (2-nitrobenzoic acid) (DTNB) at a concentration of 0.01 M, followed by measuring absorbance at a wavelength of 415 nm using an Evolution 300 PC UV-Vis Spectrophotometer.

A further data set has as its system GSK-3β. Further details: method as in Beato et al., 2021; Li et al., 2023. The note with it: read-out: GSK-3β (harmine, Figure 1); ref Beato et al., 2021; Li et al., 2023; cited from earlier work.

Chain of hAChE (P22303 32-614): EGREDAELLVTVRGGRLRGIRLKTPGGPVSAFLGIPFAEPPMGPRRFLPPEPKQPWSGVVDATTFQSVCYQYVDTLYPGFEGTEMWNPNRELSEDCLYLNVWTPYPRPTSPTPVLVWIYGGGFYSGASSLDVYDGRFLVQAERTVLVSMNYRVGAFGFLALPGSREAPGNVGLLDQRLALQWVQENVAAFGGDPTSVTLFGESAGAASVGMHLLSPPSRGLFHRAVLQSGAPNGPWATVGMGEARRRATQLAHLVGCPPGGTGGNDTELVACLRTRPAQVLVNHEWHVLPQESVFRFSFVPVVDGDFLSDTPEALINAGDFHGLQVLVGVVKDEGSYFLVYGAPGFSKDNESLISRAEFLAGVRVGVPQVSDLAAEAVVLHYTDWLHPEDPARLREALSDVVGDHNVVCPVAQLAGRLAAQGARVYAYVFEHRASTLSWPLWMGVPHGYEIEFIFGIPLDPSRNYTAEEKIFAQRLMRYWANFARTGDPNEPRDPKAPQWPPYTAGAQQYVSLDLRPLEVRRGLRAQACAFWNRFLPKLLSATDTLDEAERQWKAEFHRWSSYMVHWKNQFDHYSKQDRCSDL
Chain of hBuChE (P06276 29-602): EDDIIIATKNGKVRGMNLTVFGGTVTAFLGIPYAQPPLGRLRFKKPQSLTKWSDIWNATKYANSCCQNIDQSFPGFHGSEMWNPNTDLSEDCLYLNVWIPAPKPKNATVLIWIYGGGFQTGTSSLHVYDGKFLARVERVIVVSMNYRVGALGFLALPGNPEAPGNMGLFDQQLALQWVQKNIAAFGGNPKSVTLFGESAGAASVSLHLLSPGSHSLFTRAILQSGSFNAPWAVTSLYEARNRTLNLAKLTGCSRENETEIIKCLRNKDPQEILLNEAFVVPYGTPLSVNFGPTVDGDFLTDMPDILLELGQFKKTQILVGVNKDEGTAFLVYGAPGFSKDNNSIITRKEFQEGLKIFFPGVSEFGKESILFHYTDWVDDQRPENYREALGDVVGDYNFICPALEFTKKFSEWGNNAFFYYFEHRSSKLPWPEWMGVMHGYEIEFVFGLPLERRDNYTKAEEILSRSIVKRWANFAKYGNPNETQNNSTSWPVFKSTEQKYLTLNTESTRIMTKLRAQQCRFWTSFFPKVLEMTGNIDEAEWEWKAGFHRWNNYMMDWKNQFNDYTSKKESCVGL
Chain of Aβ 1−42 (P05067 672-713 limits assumed): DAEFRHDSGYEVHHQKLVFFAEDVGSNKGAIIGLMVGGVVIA

As for `c1ccc2c(NCCCCCCCNc3c4c(nc5ccccc35)CCCC4)c3c(nc2c1)CCCC3` [Compound 2, Bis-tacrine], the IC50 in the data set on BuChE (ref Bolognesi et al., 2010, read-out: IC50 for inhibiting BuChE (bis-tacrine)) is 0.00566 µM; with BACE1, 7.5 µM; in the data set on AChE (ref Bolognesi et al., 2010, read-out: IC50 for inhibiting AChE (bis-tacrine)), […]. For the same molecule, the “Aβ1-42 (bis-tacrine, Figure 1)” value with Aβ1-42 (ref Bolognesi et al., 2010) is on record as 68.0%.

Regarding `COc1ccc(/C=C/c2cnc(/C=C/c3ccc(OC)cc3)cn2)cc1` [Compound 3, Bis-(arylvinyl)-pyrazines], the IC50 is 0.013 µM in the data set with Tau and 0.017 µM in the data set with Aβ.

`COC(=O)c1cc2c3ccccc3n(CCCCN(C)CCN(C)CCCCn3c4ccccc4c4cc(C(=O)OC)nc(C)c43)c2c(C)n1` [Compound 5, Bis-(9)-β-carboline]: the IC50 in the data set with BuChE (ref Rook et al., 2010, Zhao et al., 2018, read-out: BuChE (bis-(9)-β-carboline 5, Figure 1)) was 1.5 µM; with AChE (ref Rook et al., 2010, Zhao et al., 2018, read-out: AChE (bis-(9)-β-carboline 5, Figure 1)) it was 9.6 µM. Moreover, in the data set with Aβ1-42 (ref Rook et al., 2010, Zhao et al., 2018), the “Aβ1-42 (bis-(9)-β-carboline 5, Figure 1)” value is 65.5%.

Turning to `Cc1nccc2c1[nH]c1cc(OCc3cn(Cc4ccccc4Cl)nn3)ccc12` [Compound 6], the IC50 in the data set with MAO-B is 0.26 µM; in the data set on MAO-A (ref Du et al., Haider et al., 2018, read-out: MAO-A (compound 6 of Figure 1)), 0.83 µM.

For `C=CCn1c2cc(OC(=O)CCCCN3CCN(Cc4ccc(C(F)(F)F)cc4)CC3)ccc2c2ccnc(C)c21` [Compound 7], the IC50 in the data set with BuChE (ref Du et al., 2023, Haider et al., 2018, read-out: BuChE (compound 7 of Figure 1)) is 0.356 µM; with Aβ1-42 (ref Du et al., 2023, Haider et al., 2018, read-out: Aβ1-42 (compound 7 of Figure 1)) it was 12.4 µM; with AChE (ref Du et al., 2023, Haider et al., 2018, read-out: AChE (compound 7 of Figure 1)), 0.0484 µM.

As for `C=CCn1c2cc(OCCCCCCCCOc3ccc4c5ccnc(C)c5n(CC=C)c4c3)ccc2c2ccnc(C)c21` [Compound 8d, 1,8-bis ((9-allyl-1-methyl-9H-pyrido [3,4-b]indol-7-yl)oxy)octane], the “cytotoxicity in SHSY5Y cells” value with SHSY5Y cells [1] (0.1 to 10 μM) is “negligible cytotoxicity”. Also, in the data set with SHSY5Y cells [1] (concentration increased to 10 μM (so in the source)), the “SHSY5Y cell viability at increased concentration” value is listed as “evident decrease in SHSY5Y cell viability”. Further, the “S.I. Selectivity index IC50(hBuChE)/IC50(hAChE)” value on hAChE is given as more than 1.0. In addition, the IC50 stood at 963 ± 69.5 nM at hAChE (Mean ± SD from 3-5 assays, read-out: IC50 (nM) for cholinesterase hAChE); 25.7 ± 1.9 nM at recombinant hMAO-A; 335 ± 13.8 nM on recombinant hMAO-B (mean ± SD, read-out: IC50 (nM) for monoamine oxidases hMAO-B); 9.2 ± 0.4 µM on Aβ 1−42. In addition, in the data set on SHSY5Y cells [2], the “cellular recovery from Aβ 1-42-induced damage” value is recorded as “significant cellular recovery”. Also, on hBuChE (compound at 1 μM), the inhibition at 1 µM stood at 39.8%.

Take `COc1ccc2c(c1)[nH]c1c(C)nccc12` [Harmine]: the results for the inhibition at 1 µM on hAChE (read-out: inhibition of hAChE in primary screening), at recombinant hMAO-B (read-out: inhibition of hMAO-B in primary screening) and at hBuChE were 30.9%, 23.5% and 23.5%, respectively. The IC50 in the data set with BuChE (read-out: BuChE (harmine, Figure 1), ref Beato et al., 2021, Li et al., 2023) is 75.1 µM; with MAO-A (read-out: MAO-A (harmine, Figure 1), ref Beato et al., 2021, Li et al.) it was 0.38 µM; in the data set with AChE (read-out: AChE (harmine, Figure 1), ref Beato et al., 2021, Li et al., 2023), 9.05 µM; in the data set with GSK-3β, 31.3 µM.
